Patent publication US20170042890A1, “METHODS OF REDUCING DECLINE IN VITAL CAPACITY” (Cytokinetics, Inc., priority 2014, published 2017)

How the values were obtained:
muscle = settings: other model systems; cited from earlier work
[1] = test system: slow skeletal muscle troponin; settings: cited from earlier work
[2] = test system: muscle contraction / grip strength; settings: cited from earlier work
patients with ALS [3] = test: BENEFIT-ALS clinical trial: muscle strength mega-score; assay type: in vivo, human; settings: for Muscle strength mega-score change from baseline (LS mean): based on percent change from baseline across several muscle groups
Experimental: (§1) BENEFIT-ALS was a multi-national, randomized, stratified, double-blind, placebo-controlled, parallel-group study of tirasemtiv in patients with ALS. The study consisted of a screening period, an open-label/lead-in period, and a double-blind treatment period. Following screening, eligible patients received open-label tirasemtiv, 125 mg BID, for 7 days. Patients who tolerated the 7-day lead-in period were randomized in a 1:1 ratio to tirasemtiv or placebo. Over the first 3 weeks of double-blind treatment, patients randomized to tirasemtiv had their TDD up-titrated as follows: 250 mg for 7 days, then 375 mg for 7 days, then 500 mg for 7 days. […] However, in such cases, dose escalation was re-attempted at least one additional time. The highest tolerable tirasemtiv dose for each individual patient was the dose that patient received for the remaining 9 weeks (i.e., the maximum tolerated dose [MTD] phase) of the study. Patients randomized to placebo underwent a corresponding dummy dose titration.
(§2) Randomization was stratified by riluzole use. […] Clinical assessments occurred every 4 weeks during double-blind treatment; patients also returned for follow-up evaluations at 1 and 4 weeks after their final dose of double-blind study medication (FIG. 1).
(§3) The secondary objectives included assessments of the effect of tirasemtiv versus placebo on measures of respiratory function (Maximum Voluntary Ventilation (MVV), Sniff Nasal Inspiratory Pressure (SNIP), SVC) and skeletal muscle function including handgrip fatigue and muscle-strength mega-score (i.e., the average z-score for muscle strength measurements across the following tested bilateral muscle groups: elbow flexion, wrist extension, knee extension, ankle dorsiflexion, and handgrip)). Secondary endpoints included the changes from baseline in each of the above mentioned measures (MVV, SNIP, SVC, and muscle-strength mega-score) for the Modified FAS, and the slope of each of the measures from baseline to Week 12 for the Modified FAS.
(§4) Eligible patients were males and females, 18 years of age and older, with a diagnosis of familial or sporadic ALS and meeting the World Federation of Neurology El Escorial criteria of definite ALS, probable ALS, laboratory-supported probable ALS, or possible ALS. Patients were to have an upright SVC>50% of predicted for age, height, and sex, a diminished, but measurable, maximum voluntary grip strength in at least one hand (i.e., between 10-50 pounds for females and 10-70 pounds for males), and at least 4 of the 12 ALSFRS-R questions were to have been scored as a 2 or 3. Patients were to be able to swallow tablets without crushing, and in the opinion of the investigator, were expected to do so for the duration of the study. If the patient needed a caregiver, the caregiver was to be able to observe the patient's status. Clinical laboratory results were to be either within their respective normal ranges or if outside the normal range, deemed not clinically significant by the investigator. […] Patients not taking riluzole prior to study entry were not permitted to take riluzole at any dose during the course of the study.
(§5) Safety data presented were based on the safety analysis set, defined as all patients who received at least 1 dose of double-blind study drug. Of the 605 randomized patients, 596 (295 placebo, 301 tirasemtiv) received at least 1 dose of double-blind study drug and were included in the safety analysis set. Data for the primary and secondary efficacy endpoints were analyzed with the Modified FAS. This analysis set included all patients who received at least 1 dose of double-blind study drug and had at least 1 efficacy assessment during the double-blind treatment period, and excluded 156 patients who were randomized in blocks containing patients affected by a study drug assignment error in which 58 patients randomized to and treated with double-blind tirasemtiv were dispensed double-blind placebo instead. […]

patients with ALS [4] = test: BENEFIT-ALS clinical trial: slow vital capacity (SVC); assay type: in vivo, human
Experimental: as §1, §2, §3, §4, §5

[5] = BENEFIT-ALS clinical trial: body weight; assay type: in vivo; settings: N=178
Experimental: as §1
Safety data presented were based on the safety analysis set, defined as all patients who received at least 1 dose of double-blind study drug. Of the 605 randomized patients, 596 (295 placebo, 301 tirasemtiv) received at least 1 dose of double-blind study drug and were included in the safety analysis set. Data for the primary and secondary efficacy endpoints were analyzed with the Modified FAS. This analysis set included all patients who received at least 1 dose of double-blind study drug and had at least 1 efficacy assessment during the double-blind treatment period, and excluded 156 patients who were randomized in blocks containing patients affected by a study drug assignment error in which 58 patients randomized to and treated with double-blind tirasemtiv were dispensed double-blind placebo instead. Based on these criteria, the Modified FAS consisted of 388 patients (210 placebo, 178 tirasemtiv).

C#Cc1cnc2nc(O)n(C(CC)CC)c2n1 [Tirasemtiv, 6-ethynyl-1-(pentan-3-yl)-1H-imidazo[4,5-b]pyrazin-2(3H)one]
Fatigability of muscle (muscle): decreased fatigability of muscle | Muscle power (muscle): increased muscle power | Effect on slow skeletal muscle troponin [1]: little effect | Grip strength ([2]; preclinical models of limited neuromuscular input): increased grip strength | Force of muscle contraction ([2]; submaximal nerve stimulation frequencies): increased the force of muscle contraction | Muscle strength mega-score slope from baseline to Week 12 (patients with ALS [3]; Modified FAS N=178): −0.1104 | Muscle strength mega-score change from baseline (LS mean) (patients with ALS [3]; Week 4): −4.36 | Muscle strength mega-score change from baseline (LS mean) (patients with ALS [3]; Week 8): −7.43 | Muscle strength mega-score change from baseline (LS mean) (patients with ALS [3]; Week 12): −10.78 | Muscle strength mega-score difference in slope (tirasemtiv vs placebo) (patients with ALS [3]; p=0.0158): 0.1647 | Muscle strength mega-score decline versus placebo, in words (patients with ALS [3]; p=0.0158 for the difference in slope): declined more slowly | SVC slope of changes from baseline to Week 12 (patients with ALS [4]; Modified FAS N=178): −0.0394 | SVC change from baseline (LS mean) (patients with ALS [4]; Week 4, Modified FAS N=178): −0.99 % predicted | SVC change from baseline (LS mean) (patients with ALS [4]; Week 8, Modified FAS N=178): −2.85 % predicted | SVC change from baseline (LS mean) (patients with ALS [4]; Week 12, Modified FAS N=178): −3.12 % predicted | SVC change from baseline (LS mean), post-treatment (patients with ALS [4]; Week 13, 1 week after last dose of double-blind study drug): −3.75 % predicted | SVC change from baseline (LS mean), post-treatment (patients with ALS [4]; Week 16, 4 weeks after last dose of double-blind study drug): −5.39 % predicted | LS mean±SE change from baseline in SVC (patients with ALS [4]; after 12 weeks of treatment): −3.12% | SVC difference in slope (tirasemtiv vs placebo) (patients with ALS [4]; baseline to Week 12, p=0.0006): 0.051 | Treatment difference in change from baseline to average SVC after 8 and 12 weeks (patients with ALS [4]; subgroup: baseline SVC>median at baseline, p<0.0001): 6.02% | Treatment difference in change from baseline to average SVC after 8 and 12 weeks (patients with ALS [4]; subgroup: females, p=0.012): 6.84% | Treatment difference in change from baseline to average SVC after 8 and 12 weeks (patients with ALS [4]; subgroup: non-riluzole users, p=0.0005): 6.55% | Effect on decline of SVC, in words (patients with ALS [4]; versus placebo): statistically significant and potentially clinically meaningful reduction in the decline of SVC | Weight change from baseline, LS mean ([5]; Week 4): -0.83 kg | Weight change from baseline, LS mean ([5]; Week 8): -1.30 kg | Weight change from baseline, LS mean ([5]; Week 12): -1.70 kg
